Test results from PubChem BioAssay (NCI).
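Cells were grown in 96-well plates and exposed to each compound for 48 hours at five concentrations; endpoints were interpolated linearly between bracketing concentrations, or set to the highest concentration if not reached. Abbreviation: GI50, concentration required for 50% inhibition of growth. Definition used: TGI = concentration required for complete inhibition of growth.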

Key:
Assay in all cases: DTP human tumour cell line panel, 48 h
HCT-15 colon = system: HCT-15 colon
HCT-116 colon = system: HCT-116 colon
CAKI-1 renal = system: CAKI-1 renal
ACHN renal = system: ACHN renal
HCC-2998 colon = system: HCC-2998 colon
OVCAR-5 ovarian = system: OVCAR-5 ovarian
SNB-75 CNS = system: SNB-75 CNS
SK-MEL-2 melanoma = system: SK-MEL-2 melanoma
SNB-19 CNS = system: SNB-19 CNS
MOLT-4 leukemia = system: MOLT-4 leukemia

Compound | TGI (HCT-15 colon) [µM] | TGI (HCT-116 colon) [µM] | TGI (CAKI-1 renal) [µM] | TGI (ACHN renal) [µM] | TGI (HCC-2998 colon) [µM] | TGI (OVCAR-5 ovarian) [µM] | TGI (SNB-75 CNS) [µM] | TGI (SK-MEL-2 melanoma) [µM] | TGI (SNB-19 CNS) [µM] | TGI (MOLT-4 leukemia) [µM] | GI50 (HCT-116 colon) [µM]
COc1ccc(C2C=C(c3ccc(C)cc3)N(c3ccc(OC)cc3[N+](=O)[O-])C3C(=O)OC(=O)C23)c(OC)c1 (stereo unspecified) | > 100 | > 100 | > 100 | 37.3 | 79.4 | > 100 | 75.9 | > 100 | > 100 | 91.6 | 
C=CN(C=C)C(=O)Cn1cc(-c2ccccc2)nn1 | > 100 | > 100 | > 100 | > 100 | > 100 | > 100 | > 100 | > 100 | > 100 | > 100 | 
O=C1c2cc3c(cc2CC12Cc1ccc4c(c1C2=O)CCC4)CCC3 (stereo unspecified) | > 100 | > 100 | > 100 | > 100 | > 100 | > 100 | > 100 | > 100 | > 100 | > 100 | 
O=c1c2cc([N+](=O)[O-])ccc2oc2nc3n(c(=O)c12)CCCS3 | > 100 | > 100 | > 100 | > 100 | > 100 | > 100 | > 100 | > 100 | > 100 | > 100 | 
Clc1ccc(/C(=C/c2ccccc2)Cn2ccnc2)cc1 | > 100 | > 100 | > 100 | > 100 | > 100 | > 100 | > 100 | 40.8 | > 100 | > 100 | 
OC(CC(O)(C(F)(F)Cl)C(F)(F)Cl)c1ccccc1 (stereo unspecified) | > 10 | > 10 | > 10 | > 10 | > 10 | > 10 | > 10 | > 10 | > 10 | > 10 | 
O=c1c2ccc(Cl)cc2oc2c(CNc3ccc(S(=O)(=O)Nc4ncccn4)cc3)cccc12 | > 100 | > 100 | > 100 | > 100 | > 100 | > 100 | > 100 | > 100 | > 100 | > 100 | 
O=[N+]([O-])c1ccc(-c2csc(=[N+]3CCCCC3)s2)cc1 | > 100 | > 100 | > 100 | > 100 | > 100 | 62.6 | > 26.5 | 60.2 | > 100 | > 60.9 | 
CSc1nc(=O)c2nc(-c3cccs3)c(-c3cccs3)nc2n1C | > 100 | > 100 | > 100 | > 100 | > 100 | > 100 | 49.6 | > 100 | > 100 | > 100 | 
O=C1CC[C@@]23CC(=O)O[C@@H]2CCCC3C1 (stereo partly specified) | > 100 | > 100 | > 100 | > 100 | > 100 | > 100 | > 100 | > 100 | > 100 | > 100 | 
CN(C)/N=N/c1nc2c(c(=O)n(C)c(=O)n2C)n1CC1CO1 (stereo unspecified) | 29.1 | 24 | 38.9 | 41.9 | 25.3 | > 100 | 43.6 | 23.1 | 78.2 | > 100 | 
CC1=NN2C(=N)/C(=C/c3ccc(F)cc3)C(=O)N=C2S1 | > 100 | > 100 | > 100 | > 100 | > 100 | > 100 | > 100 | > 100 | > 100 | > 100 | 
Cn1c(=O)cc(NNc2ccc(Cl)c(Cl)c2)[nH]c1=O | 18.5 | 20.5 | 27.3 | 19.9 | 16.6 | 31.5 | 48.4 | 33.6 | > 100 | 58.2 | 
CSc1ccc(/C=C2\N=C(c3ccccc3)N(c3nc4cc(Cl)c(F)cc4s3)C2=O)cc1 | > 100 | > 100 | > 100 | > 100 | > 100 | > 100 | 66.6 | 50.4 | 76.6 | > 100 | 
CS(=O)(=O)Nc1ccc2ccccc2c1 | > 100 | > 100 | > 100 | > 100 | > 100 | > 100 | > 100 | > 100 | > 100 | > 100 | 
CC1(C)C=C(/C=C2/N(S(=O)(=O)C(F)(F)F)C(/C=C3/N(S(=O)(=O)C(F)(F)F)C(C)(C#N)CC3(C)C)=CC2(C)C)N=C1/C=C1/CC(C)(C)C(=O)N1 (stereo unspecified) | 73.6 | 42.8 | > 100 | > 100 | > 100 | > 100 | > 100 | > 100 | > 100 | > 100 | 
NC(=O)c1ccc[n+](C2=C([O-])c3ccccc3C(=O)/C2=N\S(=O)(=O)c2ccccc2)c1 | 95.9 | 32.4 | 37.1 | 26.4 | 22.6 | 33.3 | 28.1 | 25.7 | 29.9 | 81.5 | 
NC(=O)C1CCN(Cc2c(Cl)c(Cl)c(CN3CCC(C(N)=O)CC3)c(Cl)c2Cl)CC1 | > 100 | > 100 | > 100 | > 100 | > 100 | > 100 | 63.6 | > 100 | > 100 | > 100 | 

Compound | TGI (HCT-15 colon) [µM] | TGI (HCT-116 colon) [µM] | TGI (CAKI-1 renal) [µM] | TGI (ACHN renal) [µM] | TGI (HCC-2998 colon) [µM] | TGI (OVCAR-5 ovarian) [µM] | TGI (SNB-75 CNS) [µM] | TGI (SK-MEL-2 melanoma) [µM] | TGI (SNB-19 CNS) [µM] | TGI (MOLT-4 leukemia) [µM] | GI50 (HCT-116 colon) [µM]
CC/C=N\N1C(N)=C(C#N)C(C#N)(C#N)C1CC (stereo unspecified) | > 100 | > 100 | > 100 | > 100 | > 100 | > 100 | > 100 | > 100 | > 100 | > 100 | 
CCCCN(CCCC)CC(C(C)=O)C(c1ccccc1)c1c(O)c2ccccc2oc1=O (stereo unspecified) | > 100 | > 100 | > 100 | > 100 | > 100 | > 100 | 76.3 | > 100 | > 100 | > 100 | 
CN(C)CCNCCCNc1c2ccccc2nc2cccc([N+](=O)[O-])c12 | 0.569 | 0.0594 | 0.331 | 0.0312 | < 0.0184 | 0.0543 | 0.0573 | 0.0523 | 0.177 | < 0.0192 | 
C/C(=C\CSCC(N)C(=O)O)CC/C=C(\C)CNc1ccccc1 (stereo unspecified) | > 100 | > 100 | > 100 | > 100 | > 100 | > 100 | > 100 | > 100 | > 100 | > 100 | 
O=C([C@H](O)[C@@H](O)c1cccc(Cl)c1)C12CC3CC(CC(C3)C1)C2 | 6.62 | 6.79 | 3.98 | 3.56 | 4.15 | 8.79 | 3.7 | 4.24 | 4.07 | > 100 | 
CCN(CC)C(=S)N/N=C(/c1ccccc1)c1ccccn1 | > 36.9 | 13.6 | 11 | 5.39 | 37 | 22.9 | 7.59 | 26.2 | > 100 | > 100 | 
COC1(CC[C@H](C)COC2OC(CO)C(O)C(O)C2O)O[C@H]2C[C@H]3[C@@H]4CC=C5C[C@@H](OC6OC(CO)C(OC7OC(C)C(O)C(O)C7O)C(O)C6OC6OC(C)C(O)C(O)C6O)CC[C@]5(C)[C@H]4CC[C@]3(C)[C@H]2[C@@H]1C (stereo partly specified) | 7.47 | 8.34 | 3.26 | 29.4 | > 27.9 | > 35.5 | 3.8 | 13.6 | 12.4 | > 100 | 2.92
N#CCCN(CCC#N)c1ccc(C(N=Nc2ccccc2)=Nc2ccc(F)cc2)cc1 | > 100 | > 100 | > 100 | > 100 | > 100 | > 100 | > 100 | > 100 | > 100 | > 100 | 
Cc1c(C(=O)NNc2ccccc2)n2c(=S)[nH]nc2c2ccccc12 | > 100 | > 100 | > 100 | > 100 | > 100 | > 100 | > 100 | > 100 | > 100 | > 100 | 
O=C1C=CC(=O)c2c(O)c(N3CCC[C@@H]3CO)c(Cl)c(O)c21 | 3.35 | 2.91 | 2.94 | 2.96 | 3.49 | 3.08 | 3.12 | 3.15 | 3.09 | 1.14 | 
C[C@H]1[C@H](C)CC[C@]2(C(=O)OC3OC(CO)C(O)C(O)C3O)CC[C@]3(C)C(=CC[C@@H]4[C@@]5(C)C[C@@H](O)[C@@H]6OC(=O)c7cc(O)c(O)c(O)c7-c7c(cc(O)c(O)c7O)C(=O)OC[C@@]6(CO)[C@@H]5CC[C@]43C)[C@H]12 (stereo partly specified) | > 100 | > 100 | > 100 | > 100 | > 100 | > 100 | > 100 | > 100 | > 100 | > 100 | 
Cc1cc(S(=O)(=O)N=C2Nc3cccc4cccc(c34)N2)c(S)cc1Cl | > 100 | 83.8 | > 100 | > 100 | > 100 | > 100 | > 100 | > 100 | > 100 | > 100 | 
CC1=C(C)SC(=C2Sc3c(n(C)c(=O)n(C)c3=O)S2)S1 | > 100 | 27.5 | > 100 | > 100 | > 100 | > 100 | 52.3 | 79.1 | > 100 | > 100 | 
CC[C@H](NC(=O)OC(C)(C)C)C(=O)NCP(=O)(OCc1ccc([N+](=O)[O-])cc1)OCc1ccc([N+](=O)[O-])cc1 | > 100 | > 100 | > 100 | 69.7 | > 100 | > 100 | > 100 | > 100 | > 100 | > 100 | 
Cc1ccc(C)c(COCCOCn2cc(N3CCOCC3)c(=O)[nH]c2=O)c1 | > 100 | > 100 | > 100 | > 100 | > 100 | > 100 | > 100 | > 100 | > 100 | > 100 | 
CCc1nc2c(c(N(C)C)c1C(=O)OC)CCc1ccccc1-2 | > 100 | > 100 | > 100 | > 100 | 67.5 | > 100 | > 100 | 39.5 | > 100 | 23 | 
C[As+](C)(c1ccc(Br)c([N+](=O)[O-])c1)c1ccc(Br)c([N+](=O)[O-])c1.O=[N+]([O-])O | > 100 | > 100 | > 100 | > 100 | > 100 | > 100 | > 100 | > 100 | > 100 | > 100 | 
NCCCCNCCCN1CCOC1=O | > 100 | > 100 | > 100 | > 100 | > 100 | > 100 | > 100 | > 100 | > 100 | > 100 | 
